Experimental data taken from patent publication US6369104B1, “Biocidal compositions and use thereof containing a synergistic mixture of glutaraldehyde and 2,2-dibromo-3 nitrilo propionamide” (Hercules Incorporated, priority 2000, dated 2002).

Test system: Klebsiella pneumoniae
Assay: Checkerboard growth inhibition (turbidity at 590 nm) with Kull synergism index
Assay type: cell-based
Protocol: Glutaraldehyde and DBNPA were added in varying ratios over a wide range of concentrations to a liquid nutrient medium which was subsequently inoculated with a standard volume of a suspension of the facultative bacterium Klebsiella pneumoniae. Growth was measured by turbidity at 590 nm in a microplate spectrophotometer. The effect of the biocide chemicals, alone and in combination, is to reduce the growth (turbidity) of the bacterial cells as compared to controls not treated with the chemicals. Additions of the biocides, alone and in varying combinations and concentrations, were made according to the accepted “checkerboard” technique described by M. T. Kelly and J. Matsen, Antimicrobial Agents and Chemotherapy. 9:440 (1976). Growth was measured after overnight incubation at 30° C. Each unique sample concentration was tested in triplicate. The percent reduction of each treated sample was calculated from the relationship: [formula]
Plotting the % reduction of turbidity against the concentration of each biocide acting alone results in a dose-response curve, from which the biocide dose necessary to achieve a given % reduction can be interpolated.
Synergism was determined by the method of calculation described by F. C. Kull, P. C. Eisman, H. D. Sylwestrowicz and R. L. Mayer, Applied Microbiology, 9:538 (1961) using the relationship:
(QA/Qa)+(QB/Qb)=Synergism Index (SI)
Qa=quantity of compound A, acting alone, producing an end point
Qb=quantity of compound B, acting alone, producing an end point
QA=quantity of compound A, in mixture, producing an end point
QB=quantity of compound B, in mixture, producing an end point
The end point used in the calculations is the % reduction caused by each mixture of A and B. QA and QB are the individual concentrations in the A/B mixture causing a given % reduction. QA and QB are determined by interpolation from the respective dose-response curves of A and B as those concentrations of A and B acting alone which produce the same % reduction as each specific mixture produced.
Dose-response curves for each active acting alone were determined by linear regression analysis of dose-response data. Data were fitted to a curve represented by the equation shown with each data set. After linearizing the data, the contributions of each biocide component in the biocide mixtures to the inhibition of turbidity were determined by a linear regression method with the dose-response curve of the respective biocide. If, for example, quantities of QA and QB are sufficient to give a 50% reduction in turbidity, Qa and Qb are those quantities of A and B acting alone respectively, found to give 50% reduction in turbidity. A synergism index (SI) is calculated for each combination of A and B.
Where the SI is less than 1, synergism exists. Where the SI=1, additivity exists. Where SI is greater than 1, antagonism exists.
The data in the following tables come from treating Klebsiella pneumoniae, a common nuisance bacterial type found in industrial cooling waters and in pulping and paper making systems, with varying ratios and concentrations of glutaraldehyde and DBNPA. Shown for each combination is the % reduction of turbidity (%I), the calculated SI, and the weight ratio of glutaraldehyde and DBNPA.

N#CC(Br)(Br)C(N)=O [DBNPA, 2,2-dibromo-3-nitrilopropionamide]
% I (% reduction of turbidity) (Table I, DBNPA 3.2 ppm alone): 60% | % I (% reduction of turbidity) (Table I, DBNPA 6.3 ppm alone): 62% | % I (% reduction of turbidity) (Table I, DBNPA 12.5 ppm alone): 65% | % I (% reduction of turbidity) (Table I, DBNPA 25 ppm alone): 72% | % I (% reduction of turbidity) (Table I, DBNPA 50 ppm alone): 86% | % I (% reduction of turbidity) (Table I, DBNPA 100 ppm alone): 100% | % I (% reduction of turbidity) (Table II, DBNPA 3.2 ppm alone): 84% | % I (% reduction of turbidity) (Table II, DBNPA 6.3 ppm alone): 85% | % I (% reduction of turbidity) (Table II, DBNPA 12.5 ppm alone): 87% | % I (% reduction of turbidity) (Table II, DBNPA 25 ppm alone): 89% | % I (% reduction of turbidity) (Table II, DBNPA 50 ppm alone): 95% | % I (% reduction of turbidity) (Table II, DBNPA 100 ppm alone): 100%

O=CCCCC=O [Glutaraldehyde, glutaraldehyde]
% I (% reduction of turbidity) (Table I, Glutaraldehyde 9.4 ppm alone): 0% | % I (% reduction of turbidity) (Table I, Glutaraldehyde 18.8 ppm alone): 0% | % I (% reduction of turbidity) (Table I, Glutaraldehyde 37.5 ppm alone): 6% | % I (% reduction of turbidity) (Table I, Glutaraldehyde 75 ppm alone): 22% | % I (% reduction of turbidity) (Table I, Glutaraldehyde 150 ppm alone): 53% | % I (% reduction of turbidity) (Table I, Glutaraldehyde 300 ppm alone): 100% | % I (% reduction of turbidity) (Table II, Glutaraldehyde 9.4 ppm alone): 2% | % I (% reduction of turbidity) (Table II, Glutaraldehyde 18.8 ppm alone): 6% | % I (% reduction of turbidity) (Table II, Glutaraldehyde 37.5 ppm alone): 13% | % I (% reduction of turbidity) (Table II, Glutaraldehyde 75 ppm alone): 28% | % I (% reduction of turbidity) (Table II, Glutaraldehyde 150 ppm alone): 58% | % I (% reduction of turbidity) (Table II, Glutaraldehyde 300 ppm alone): 100%
